# In patent publication US10035790B2, “RORγ modulators” (BRISTOL-MYERS SQUIBB COMPANY, priority 2012, dated 2018):
# Target: T1, ligand binding domain of human RORγ (A262-S507) (Homo sapiens, UniProt P51449)
# T1 construct: made in house; host or cells: E. coli
# T1 sequence (P51449 262-507): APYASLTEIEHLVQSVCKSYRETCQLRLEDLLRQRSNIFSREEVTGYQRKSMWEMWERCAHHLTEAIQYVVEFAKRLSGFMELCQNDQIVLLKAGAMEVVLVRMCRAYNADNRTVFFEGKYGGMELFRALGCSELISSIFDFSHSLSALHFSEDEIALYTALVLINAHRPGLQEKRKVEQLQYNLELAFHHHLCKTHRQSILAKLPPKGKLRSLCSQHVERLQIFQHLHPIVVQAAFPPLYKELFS
# Experiment: General RORγ SPA binding assay (competition with [3H]25-hydroxycholesterol)
# Conditions: RORγ SPA binding assay, inhibition of [3H]25-hydroxycholesterol binding; read-out: IC50
# In short: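 N-terminally His-tagged protein was expressed in E. coli and nickel-purified. Then 50 nM protein was preincubated with compound for 15 min at room temperature in PBS with 0.5% fatty acid free BSA, followed by radioligand for 15 min and copper His-tag SPA beads for 30 min. IC50 came from percent inhibition of binding.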
row,Structure (SMILES),IC50
1,"Cc1ncc(C(=O)NCc2ccc(Cl)cc2C)c(C2CCN(C(=O)Cc3c(F)cccc3F)CC2)n1 [Compound A59, N-(4-chloro-2-methylbenzyl)-4-(1-(2-(2,6-difluorophenyl)acetyl)piperidin-4-yl)-2-methylpyrimidine-5-carboxamide]",0.0255 µM
2,"Cc1nc(N)nc(C2CCN(C(=O)Oc3ccc(F)cc3F)CC2)c1-c1nnc(-c2ccnc(C(F)(F)F)n2)o1 [Compound C56, 2,4-Difluorophenyl 4-(2-amino-6-methyl-5-{5-[2-(trifluoromethyl)pyrimidin-4-yl]-1,3,4-oxadiazol-2-yl}pyrimidin-4-yl)piperidine-1-carboxylate]",0.0247 µM
3,"COc1ncc(C(=O)NCc2ccc(Cl)c(Cl)c2)c(C2CCN(C(=O)Cc3c(F)cccc3F)CC2)n1 [Compound A86, N-(3,4-dichlorobenzyl)-4-(1-(2-(2,6-difluorophenyl)acetyl)piperidin-4-yl)-2-methoxypyrimidine-5-carboxamide]",0.007 µM
4,"Cc1cc(C)cc(CNC(=O)c2cnc(C)nc2C2CCN(C(=O)Cc3cccc(F)c3F)CC2)c1 [Compound A18, 4-(1-(2-(2,3-difluorophenyl)acetyl)piperidin-4-yl)-N-(3,5-dimethylbenzyl)-2-methylpyrimidine-5-carboxamide]",0.124 µM

# Now from value to compound:
row,IC50,Structure (SMILES)
1,0.159 µM,"Cc1nc(C)c(-c2nnc(-c3ccnc(C(F)(F)F)n3)o2)c(C2CCN(C(=O)Nc3ccccc3OC(F)(F)F)CC2)n1 [Compound C32, 4-(2,6-dimethyl-5-{5-[2-(trifluoromethyl)pyrimidin-4-yl]-1,3,4-oxadiazol-2-yl}pyrimidin-4-yl)-N-{2-[(trifluoromethyl)oxy]phenyl}piperidine-1-carboxamide]"
2,0.0048 µM,"COc1nc(C)c(C(O)COc2ccnc(C(F)(F)F)n2)c(C2CCN(C(=O)Nc3c(F)cccc3F)CC2)n1 (stereo not shown) [Compound N8, N-(2,6-Difluorophenyl)-4-[5-(1-hydroxy-2-{[2-(trifluoromethyl)pyrimidin-4-yl]oxy}ethyl)-6-methyl-2-(methyloxy)pyrimidin-4-yl]piperidine-1-carboxamide]"
3,0.0122 µM,"Nc1ncc(C(=O)COc2ccnc(C(F)(F)F)n2)c(C2CCN(C(=O)Nc3c(F)cccc3F)CC2)n1 [Compound M6, 4-[2-Amino-5-({[2-(trifluoromethyl)pyrimidin-4-yl]oxy}acetyl)pyrimidin-4-yl]-N-(2,6-difluorophenyl)piperidine-1-carboxamide]"
4,0.657 µM,"Cc1nc(C)c(-c2nnc(-c3ccc(Cl)cn3)o2)c(C2CCN(C(=O)Cc3c(F)cccc3F)CC2)n1 [Compound C20, 1-(4-(5-(5-(5-chloropyridin-2-yl)-1,3,4-oxadiazol-2-yl)-2,6-dimethylpyrimidin-4-yl)piperidin-1-yl)-2-(2,6-difluorophenyl)ethanone]"
5,0.195 µM,"COC(=O)C(C)(CNc1ccnc(C(F)(F)F)n1)c1cnc(C)nc1C1CCN(C(=O)Cc2c(F)cccc2F)CC1 (stereo not shown) [Compound F4, Methyl 2-(4-(1-(2-(2,6-difluorophenyl)acetyl)piperidin-4-yl)-2-methylpyrimidin-5-yl)-2-methyl-3-(2-(trifluoromethyl)pyrimidin-4-ylamino)propanoate]"
6,0.0065 µM,"Cc1ncc(C(F)(F)CNc2ccnc(C(F)(F)F)n2)c(C2CCN(C(=O)Cc3c(F)cccc3F)CC2)n1 [Compound N19, N-[2-(4-{1-[(2,6-Difluorophenyl)acetyl]piperidin-4-yl}-2-methylpyrimidin-5-yl)-2,2-difluoroethyl]-2-(trifluoromethyl)pyrimidin-4-amine]"
